According to US11471462B2, “Compositions and methods for detecting and treating diabetes” (THE BROAD INSTITUTE, INC., priority 2016, dated 2022):
Read-outs that look alike come from different tables or passages of the source.

Legend:
SLC16A11 [1] = assay: Compound treatment, SLC16A11 expression by ddPCR in NCIH716 cells; type: cell-based, human; conditions: same concentrations and treatment times as LINCS
Protocol: A small number of the compounds that made the strongest positive connections to the SLC16A11 gene expression signature were selected and tested. […] Methotrexate was also included, which had been annotated as a dihydrofolate reductase inhibitor. SNU761 cells (derived from a human hepatocellular carcinoma) and NCIH716 cells (derived from a human cecum adenocarcinoma), which both express SLC16A11, were treated with the compounds. The same compound concentrations and treatment times were used as in the LINCS dataset experiments. […] For normalization, a different housekeeper gene, HPRT1, was used and obtained similar results with the mTOR inhibitors (FIGS. 14A and 14B).
SNU761 (human hepatocellular carcinoma) and NCIH716 (human cecum adenocarcinoma) were cultured in RPMI Medium 1640 supplemented with 10% Fetal Bovine Serum (FBS), 100 μg/ml Streptomycin and 100 U/ml Penicillin. Cells were grown in a humidified CO2 incubator, at 37° C.
For the unbiased approach taken to investigate the compounds that connected to the SLC16A11 gene expression signature, compounds were obtained from compound management at the Broad Institute.
SNU761 and NCIH716 cells were plated into 96 well plates at a density of 20,000 cells per well. Hepatocytes were plated into collagen coated 96 well plates (Corning, 354408) at a density of 50,000 cells per well. After 24 hours, cells were treated with compounds at a final concentration of 10 μM or vehicle control for the appropriate amount of time.
At the time of collection, cells in 96 well plates were lysed by directly adding 50 μL of RLT buffer (Qiagen). […]
(§1) RNA was DNase treated and converted into cDNA using the High-Capacity RNA-to-cDNA kit (Thermo Fisher Scientific). The following FAM-labeled TaqMan Real-Time PCR assays (Thermo Fisher Scientific) were used to quantify gene expression: SLC16A11 (Hs00601062_g1), SLC16A13 (Hs00416832_m1), SLC16A1 (Hs01560299_m1). […] Droplets were generated and analyzed using a QX200 Droplet Generator and Reader system (BioRad). Data was extracted using QuantaSoft (BioRad) and analyzed using Microsoft Excel.

SLC16A13 = assay: Compound treatment, SLC16A13 expression by ddPCR in primary human hepatocytes; type: cell-based; conditions: vs DMSO
Protocol: (§2) SLC16A11 (denoted by A11 when normalized by TBP and A11* for HPRT1), SLC16A13 (A13), and SLC16A1 (A1) in comparison with DMSO treated cells.
(§3) Primary human hepatocytes were purchased from Bioreclamation IVT. Hepatocyte lot used was BHL. Cells were thawed and immediately resuspended in CP media (Bioreclamation IVT) supplemented with torpedo antibiotic (Bioreclamation IVT). Cell concentration and viability were assessed prior to use. Cells were grown in a humidified CO2 incubator, at 37° C.
(§4) SNU761 and NCIH716 cells were plated into 96 well plates at a density of 20,000 cells per well. Hepatocytes were plated into collagen coated 96 well plates (Corning, 354408) at a density of 50,000 cells per well. After 24 hours, cells were treated with compounds at a final concentration of 10 μM or vehicle control for the appropriate amount of time. […]
as §1

SLC16A1 [2] = assay: Compound treatment, SLC16A1 expression by ddPCR in NCIH716 cells; type: cell-based, human; conditions: 10 μM for 24 hours
Protocol: (§5) FIGS. 14A-14D provide graphs showing that mTOR inhibitors increase SLC16A11, but not SLC16A1 transcript levels. […] SLC16A11 (FIGS. 14A and 14B) and SLC16A1 (FIGS. 14C and 14D) expression was then assessed using droplet digital PCR (ddPCR). Bar plots depict relative fold-changes with respect to DMSO and error bars and standard deviations. Expression is normalized to housekeeping genes TBP or HPRT1.
(§6) A small number of the compounds that made the strongest positive connections to the SLC16A11 gene expression signature were selected and tested. […] Methotrexate was also included, which had been annotated as a dihydrofolate reductase inhibitor. SNU761 cells (derived from a human hepatocellular carcinoma) and NCIH716 cells (derived from a human cecum adenocarcinoma), which both express SLC16A11, were treated with the compounds. […]
as §1

SLC16A11 [3] = assay: Compound treatment, SLC16A11 expression by ddPCR in SNU761 cells; type: cell-based, human; conditions: SNU761 cells
Summary of the method: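 SNU761 hepatocellular carcinoma cells, plated 24 h, treated with compounds at 10 μM final or vehicle, with treatment times matching the LINCS dataset. SLC16A11 mRNA quantified by TaqMan droplet digital PCR, normalized to TBP or HPRT1.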

panel of 260 kinases = conditions: concentrations up to 10 μmol/L, cited from earlier work
SLC16A1 [4] = assay: Compound treatment, SLC16A1 expression by ddPCR in SNU761 cells; type: cell-based, human; conditions: 10 μM for 24 hours
Protocol: as §5, §6, §1

SLC16A1 [5] = assay: Compound treatment, SLC16A1 expression by ddPCR in primary human hepatocytes; type: cell-based; conditions: vs DMSO
Protocol: as §2, §3, §4, §1

SLC16A11 [6] = assay: Compound treatment, SLC16A11 expression by ddPCR in primary human hepatocytes; type: cell-based; conditions: vs DMSO
Protocol: as §2, §3, §4, §1

SLC16A11 (A11) = assay: ddPCR based screening assay for modulators of SLC16A11 expression (Z′); type: cell-based, human; conditions: SNU 761 cells; compound as positive control
Description: As detailed herein above, SLC16A11 (A11) belongs to a family of monocarboxylate transporters. Expression of A11 was studied in SNU 761 cell lines. These liver cancer cells are ideal for studying SLC16A11 expression because A11 is expressed in higher quantity in liver cells, although expression of the gene in all tissues is extremely low. The 5 SNP risk haplotype causes lowered expression and interferes with protein-protein interactions between A11 and a cofactor protein, indicating loss of function. Therefore, increasing A11 expression in individuals with the risk haplotype is likely beneficial.
The quality of an assay can be quantified by Z′, a measure of how well the assay can differentiate between the positive and negative controls. Using the formula: […]
First the cells were treated with inhibitor compounds, their RNA was extracted, and that RNA was used as a template to create DNA. Then, the DNA was quantified using droplet digital PCR (ddPCR), analyzed and quantified using QuantaSoft™ (BioRad). […]
From the QuantaSoft scoring of each droplet, the means and standard deviations of SLC16A11 expression levels was determined in response to compound treatment. […] Points in light gray had the gene of interest and were scored as positive (FIG. 17C). SLC16A11 was scored in the graph. […]

Compound: COc1ccc(-c2ccc3c(N4CCOC[C@@H]4C)nc(N4CCOC[C@@H]4C)nc3n2)cc1CO [AZD-8055, [5-[2,4-Bis((3S)-3-methylmorpholin-4-yl)pyrido[2,3-d]pyrimidin-7-yl]-2-methoxyphenyl]methanol]
- SLC16A11 transcript levels, compound treated compared to DMSO treated cells (SLC16A11 [1]): about 3 fold
- SLC16A13 expression (SLC16A13): decreased
- SLC16A1 expression with respect to DMSO (SLC16A1 [2]): slight decrease
- SLC16A11 (A11) transcript levels, dose response curve (SLC16A11 [3]; FIG. 16 top panel): increase
- SLC16A11 transcript levels, compound treated compared to DMSO treated cells (SLC16A11 [3]; same concentrations and treatment times as LINCS, ddPCR): about 3 fold
- avg_fc (SLC16A11 expression, compound treated vs DMSO treated cells) (SLC16A11 [3]; same doses and treatment times as in the LINCS dataset): 4.253
- increase in SLC16A11 expression, compound treated compared to DMSO treated cells (SLC16A11 [3]; unbiased test of 59 top and 20 middle LINCS compounds, LINCS doses and times): ~4 fold
- activity against a panel of 260 kinases (panel of 260 kinases): not show significant activity
- activity against a panel of 260 kinases (panel of 260 kinases; listed as AZD8055): no significant activity
- SLC16A1 expression with respect to DMSO (SLC16A1 [4]): slight decrease
- SLC16A1 expression (SLC16A1 [5]): decreased
- SLC16A11 expression (SLC16A11 [6]): increase SLC16A11 expression
- A11 expression in manual ddPCR assay (SLC16A11 (A11)): increased
